Test results reported in PMC8750417, “Intracellular Amplifiers of Reactive Oxygen Species Affecting Mitochondria as Radiosensitizers” (Cancers, 2021).

Tests used:
[1] = Prodrug-induced generation of ROS in cell free settings (DCFH/H2O2); settings: for ROS Release Efficacy: relative acceleration of the rate of DCFH fluorescence increase with H2O2, pH 7.4, FeSO4 = 1.0
Text: As previously reported, the NAAF-prodrugs react with ROS like H2O2, first leading to the cleavage of the B-C-bond with the formation of the phenol derivatives (product 2c-1, Figure S49, SI). The latter compounds exist in equilibrium with the corresponding phenolates. The phenolates undergo the spontaneous 1,6-elimination of para-quinone methide (QM) followed by the release of CO2 with the formation of the N-alkylaminoferrocene NAAF drugs (product 2c-2, Figure S46, SI). By using electrospray ionization mass spectrometry (ESI–MS), we confirmed for one representative prodrug 2c that it reacts with H2O2 in cell free settings according to this common mechanism (ESI-MS, Figures S46–S48, SI). The NAAF is further oxidized by H2O2 or molecular oxygen with the generation of drug NAAF^+ and highly toxic HO• or/and O2^•−. Finally, the NAAF^+ is reduced by glutathione (GSH), thereby closing the catalytic cycle, in which the NAAF acts as a catalyst. We evaluated the formation of HO• or/and O2^•− by using 2′,7′-dichlorodihydrofluorescein (DCFH) as a probe (Table 1, Figure S49, SI). This probe is oxidized to the fluorescent product 2′,7′-dichlorofluorescein (DCF) in the presence of HO• or/and O2^•−. […] The lower activity of 2c and 2d correlates with their higher lipophilicity and their correspondingly higher propensity to form aggregates in aqueous solution (Figure S45, SI).
Prodrug-induced generation of ROS in cell free settings
2',7'-Dichlorodihydrofluorescein diacetate (DCFH-DA, 4.9 mg) was dissolved in DMF (100 μL) and mixed with aqueous NaOH (0.1 M, 900 μL). The resulting mixture was incubated for 30 min at 22 °C in the dark to obtain a stock solution of 2',7'-dichlorodihydrofluorescein (DCFH, 10 mM). Next, DCFH (1 µL ) was added to the solution containing MOPS buf fer (100 mM, pH 7.4), N,N,N'N' -e thylenediaminetetraacetic acid (EDTA , 10 mM) and glutathione (GSH , 5 mM) (1 mL, final concentration of DCFH 10 μM). The reaction mixture was heated to 37 °C and H2O2 (1 µL, final concentration 10 mM) was added. The reaction was monitored by fluorescence spectroscopy: λex = 501 nm, λem = 523 nm. After around 5 min, prodrugs (1 mM in DMF, 10 μL) or positive control FeSO4 (1 mM in water, 10 μL) were added, and the fluorescence monitoring was continued until the fluorescence signal growth was stalled after approximately 100 to 300 min. A representative kinetics of ROS […]
The data are presented in Table 1 as relative acceleration of the rate of the fluorescence increase, where the rate of the fluorescence increase obtained in the presence of positive control FeSO4 was set […]
y = a time + b (a = (dF/dt) , min-1)
Figure S49. Increase of the fluorescence intensity (λex = 501 nm, λem = 523 nm) upon oxidation of DCFH by H2O2 in the presence of FeSO4. Experimental details are provided in the description above. The time point of the FeSO4 addition is indicated with a black […]
(also on this page, place not known: ° C µL) buffer N,N,N'N'-ethylenediaminetetraacetic (EDTA, (GSH, ° C FeSO 4 (λ ex λ em Fluorescence (a.u.) (dF/dt)0, min -1 Addition of)
(1 picture or pasted object on this page, not shown here)

AsPC1 cells = test: Cell viability by flow cytometry, AsPC1; assay type: cell-based, human; settings: AsPC1, 72 h incubation
Method: Table S3. Effects of the prodrugs on the viability of BL2 cell line (IC50 values) after 48 and […]
AsPC1 cells The cells (20.000/well) were seeded in a 12-well plate and incubated for 24 h. Afterwards, the medium was changed and the cells were further incubated for 72 h with medium containing different concentrations of compounds 2c and 5b. Viable cells were determined based on the morphological parameters by using flow cytometry (Table S4).
Table S4. Effects of the prodrugs on the viability of AsPC1 cell lines (IC50 values) after 72 […]
Jurkat cells The cells were counted in MUSE Cell Analyzer using MUSE® Count &Viability Assay Kit (Merck-Millipore, Billerica, MA, USA) and adjusted to a density of 1.0 x 10^5/ml in RPMI 1640 medium (with 10% FCS and 1% glutamine). 9.000 cells per well per 90 µL were seeded into 96 well culture plates. The 30 mM prodrug stock solutions in DMSO were diluted to 300 µM, 100 µM, 30 µM and 10 µM in cell culture medium and 10 µL of the dilutions was pipetted to the cells, receiving final test concentrations of 30 µM, 10 µM, 3 µM and 1 µM. Every concentration was tested in triplicates. Cells with corresponding amounts of DMSO served as negative controls. After 48 h cells were mixed and 25 µL of […]

A2780 cells = test: Organelle-specific staining in A2780 cells (R123 MMP, AO lysosomes, ER, Golgi); assay type: cell-based, human; settings: for effect on lysosomes (LY), endoplasmic reticulum (ER) and Golgi (GO) staining: A2780, 30 µM, 1-4 h; for MMP compared to the MMP of untreated cells: R123
Method: Effect of prodrugs and controls on cellular organelles in A2780 cells: lysosomes (LY), endoplasmic reticulum (ER), Golgi (G) and mitochondria (Mit) (Figures 3, S56) A2780 cells were seeded in RPMI 1640 medium containing 5% FBS, 1% L-glutamine and 1% penicillin/streptomycin in a 24-well microtiter plate (total volume 0.5 mL) at a density of 200 cells/µL one day before the experiment. On the day of the experiment, prodrugs (“LY/ER/G”-experiments: stock solution - 3 mM, 5 µL, final concentration: 30 µM; “Mit”- experiment: stock solutions - 0.5, 1 and 3 mM, 5 µL, final concentrations: 5, 10, 30 µM) or carrier only (DMSO, 1%, v/v) were added to cells and incubated for 1, 4 and 24 h in a dark chamber filled with CO2 (5 %) at 37 °C. The cells were washed twice with DPBS buffer and the medium was replaced with HBSS (Hanks' Balanced Salt solution, 500 μL).
Stock solutions of different dyes (5 µL) were added: concentrations of the stock solutions were 4 mg/L for Acridine orange (AO), 10 mg/L for Rhodamine 123 (R123), 1 µM for ER-Tracker-Green (ERG) and 10 µM for Golgi-Staining-Green (GO). […]
Final concentrations of solutions were 40 µ g/L for AO, 100 µ g/L for R123, 0.01 µ M for ERG and 0.1 µ M for GO. The cells were incubated in the dark chamber filled with CO 2 (5%) at 37 ° C for 20 min. Afterwards the supernatant was removed, the cells were washed with DPBS buffer twice and detached from the culture dish using t rypsin/EDTA (0.025%/0.01%, v/v, 200 µ L). Next, the cells were re -suspended in fresh medium. Finally, the fluorescence of live cells (the number of total events was 5000, λex = 488 nm, λ em = 530 nm) in the suspensions was determined by using flow cytometry (N=3, Figure 3, S56).
Figure S56. Effects of the prodrugs on mitochondria membrane potential (MMP) of A2780 cell lines after 1 -48 h incubation. *: p< 0.05; **: p< 0.01; ***: p< 0.001 , Student’s t test. […]
reference (labelled on the plot). […]

SMILES	ROS-generating activity, fold lower than that of 2a and 2b ([1]; cell free DCFH assay)	ROS Release Efficacy [1]	IC50 (AsPC1 cells) [µM]	effect on lysosomes (LY), endoplasmic reticulum (ER) and Golgi (GO) staining (A2780 cells)	MMP compared to the MMP of untreated cells (A2780 cells; A2780, 1 h incubation) [%]	MMP compared to the MMP of untreated cells (A2780 cells; A2780, 24 h incubation) [%]
CC1(C)OB(c2ccc(COC(=O)N(Cc3cn(Cc4ccc(Cn5cc(Cc6ccccc6)nn5)cc4)nn3)[c-]3cccc3)cc2)OC1(C)C.[Fe+2].c1cc[cH-]c1 [2c]	~ 2 fold	0.35 ± 0.17	7.1 ± 1	affected neither LY nor ER nor GO	69 ± 11	30 ± 5
CC1(C)OB(c2ccc(COC(=O)N(Cc3cccc(CN4CCCCC4)c3)[c-]3cccc3)cc2)OC1(C)C.[Fe+2].c1cc[cH-]c1 [5b]	–	–	6.7 ± 0.5	strongly affected lysosomes	–	–
CCOC(=O)CCCCCn1cc(CN(C(=O)OCc2ccc(B3OC(C)(C)C(C)(C)O3)cc2)[c-]2cccc2)nn1.[Fe+2].c1cc[cH-]c1 [compound 1]	–	0.99 ± 0.16	–	–	–	–
